# Patent US20210214731A1, “METHODS FOR TREATING CANCER” (President and Fellows of Harvard College, priority 2019, published 2021)
# How the values were obtained:
# MLL-AF9 AML [1] = test: In vitro growth of MLL-AF9 AML; assay type: cell-based, mouse; conditions: for effect of inhibitor on in vitro growth of MLL-AF9 with MCT4-KO: combined with MCT4-KO versus control gRNA (FIG. 6D)
# Protocol: Retroviral transduction model of MLL-AF9 or HoxA9-Meis1 AML were generated by infecting normal mouse GMP (Lin^−Kit^+Sca-1^−CD34^+CD16/32^+) (FASC antibodies summarized in Supplemental Table 4) by MSCV constructs. Infected cells were injected into normal C57BL/6J. Leukemic BM was harvested and expanded ex vivo in RPMI-1640 media supplemented with 10% FBS, 1% P/S, recombinant IL-3 (10 ng/ml) and SCF (100 ng/ml).
# [2] = system: MCT4 expression in MLL-AF9 AML; test: MCT4 mRNA (Q-PCR) and protein (Western blot) expression in MLL-AF9 AML upon inhibitor treatment; assay type: cell-based, mouse; conditions: MLL-AF9 AML in vitro (FIG. 9G)
# Protocol: Cells were lyzed in 1×RIPA lysis buffer (Cell Signaling) with protease and phosphatase inhibitors. Cell lysate was centrifuged at 13000 rpm for 10 mins. Supernatant was collected and denatured in SDS-loading buffer with boiling for 10 mins. Cell lysates were separated, transferred and blotted with primary and horseradish peroxidase (HRP)-conjugated secondary antibodies (Supplemental Table 4). Hybridization signals were visualized with Amersham ECL Western blot detection reagents (GE Healthcare Amersham) or Luminata Forte Western HRP substrate (EMD Millipore) and captured by Hyperfilm™ ECL (GE Healthcare Amersham). Densitometric analysis of the bands was performed by ImageJ 1.8.0v.
# (§1) Cell was washed twice with PBS and subjected to RNA purification using RNeasy Plus Mini Kit (Qiagen) according to the manufacturers' protocol. Extracted total RNA was then subjected to reverse transcription using SuperScript IV VILO Master Mix (Thermo Fisher Scientific) according to the manufacturers' protocol. Synthesized cDNA was then used for the Q-PCR using gene-specific primers (Supplemental Table 3) and SYBR™ Green PCR Master Mix. The reaction was run and analyzed by StepOnePlus Real-Time PCR System.
# MLL-AF9 AML [3] = test: Glycolysis and Mito stress analysis (Seahorse ECAR/OCR); assay type: cell-based, mouse; conditions: MLL-AF9 AML in vitro, LDHA inhibition (FIG. 6A)
# Protocol: Glycolysis stress and Mito stress of normal Lin^− BM cells and AML were examined by Seahorse XF analyzer (Agilent) according to the manufacturers' protocol. In brief, the suspension cells were seeded onto a Cell-Tak (Corning) coated Seahorse XF Microplate in Seahorse XF Base Medium with appropriate supplement (Glycolysis Stress test: 1 mM glutamine; Mito stress test: 1 mM pyruvate, 2 mM glutamine and 10 mM glucose) and centrifuged at 200×g for 5 mins Different compounds were injected for the ECAR and OCR profiling (Glycolysis Stress test: 10 mM glucose, 1 μM Oligomycin and 50 mM 2DG; Mito Stress test: 1 μM Oligomycin, 0.5 μM FCCP and 0.5 μM Antimycin A). The data was eventually analyzed by Seahorse Wave Desktop 2.6 (Agilent).
# [4] = system: MCT4 promoter in MLL-AF9 AML; test: ChIP-PCR of enrichment on MCT4 promoter in MLL-AF9 AML; assay type: cell-based, mouse
# Protocol: ChIP assays were performed in hematopoietic cells as previously described (Kim et al., 2008) using Pierce™ Protein G Agarose (Thermo Fisher Scientific). In brief, the cell suspension was fixed with 1% formaldehyde for 7 mins then neutralized by glycine. The fixed cell was washed with cold PBS. The cell pellet was then sonicated in SDS ChIP buffer. The supernatant was collected and pre-cleared with protein G agarose. After pre-clearing, a ChIP reaction using different antibodies (1:100, summarized in Supplemental Table 4) was added to the lysate and incubated at 4° C. overnight Immunoprecipitated complexes were successively washed with buffers and then eluted using SDS elution buffer at 65° C. overnight to reverse crosslink protein-DNA complex. The samples were treated with RNase A and Proteinase K, then extracted by phenol-chloroform isoamyl alcohol and precipitated. Finally, the pellet was resuspended in 20 μl TE buffer.
# The DNA was then subjected to Q-PCR analysis using specific primers (Supplemental Table 3) and SYBR™ Green PCR Master Mix (Thermo Fisher Scientific). Input genomic DNA was used for the reference sample. The reaction was run and analyzed by StepOnePlus Real-Time PCR System (Thermo Fisher Scientific). Mouse or human Gfi1b was included as a negative control.
# MCT4 expression in THP-1 = test: Q-PCR of MCT4 mRNA expression in THP-1; assay type: cell-based, human; conditions: THP-1 (FIG. 10G)
# From the text: (§2) Human AML cell lines (K562, KG1, ML2, Kasumi-1, MOLM-13, MOLM-14, MV4-11, THP-1, MONO-MACE, HL-60, NB4, U937 and NOMO-1) were purchased from the American Type Culture Collection (ATCC) and cultured in RPMI-1640 media supplemented with 10% FBS and 1% penicillin/streptomycin (P/S).
# as §1
# THP-1 = test: In vitro growth of THP-1; assay type: cell-based, human; conditions: THP-1 (FIG. 10H)
# From the text: as §2
# [5] = system: MCT4 expression in NOMO-1; test: Q-PCR of MCT4 mRNA expression in NOMO-1; assay type: cell-based, human; conditions: NOMO-1 (FIG. 10G)
# From the text: as §2, §1
# NOMO-1 = test: In vitro growth of NOMO-1; assay type: cell-based, human; conditions: NOMO-1 (FIG. 10H)
# From the text: as §2
compound,measurement,setting,value
"O=CC[C@@H](O)[C@H](O)[C@H](O)CO [2DG, 2-deoxyglucose]",effect of inhibitor on in vitro growth of MLL-AF9 with MCT4-KO,MLL-AF9 AML [1],increased the effect
"NC(=O)c1ccc(N)nc1 [6AN, 6-aminonicotinamide]",effect of inhibitor on in vitro growth of MLL-AF9 with MCT4-KO,MLL-AF9 AML [1],increased the effect
CC(C)N(C[C@H]1O[C@@H](n2cnc3c(N)ncnc32)[C@H](O)[C@@H]1O)[C@H]1C[C@@H](CCc2nc3cc(C(C)(C)C)ccc3[nH]2)C1 [EPZ-5676],MCT4 expression,[2],not seen
CCCc1c(O)c(O)c(C(=O)O)c2cc(Cc3ccccc3)c(C)cc12 [FX11],extracellular acidification rate (ECAR),MLL-AF9 AML [3],decreased
same,oxygen consumption rate (OCR),MLL-AF9 AML [3],increased
Cc1sc2c(c1C)C(c1ccc(Cl)cc1)=N[C@@H](CC(=O)OC(C)(C)C)c1nnc(C)n1-2 [JQ-1],BRD4 enrichment on the MCT4 promoter,[4]; mouse MLL-AF9 AML (FIG. 9I),reduced
same,H3K27ac enrichment on the MCT4 promoter,[4]; mouse MLL-AF9 AML (FIG. 9J),reduced
same,expression of MCT4,MCT4 expression in THP-1,suppressed
same,MCT4 expression,[2],suppressed
same,growth,THP-1,suppressed
same,growth of MLL-AF9 AML,MLL-AF9 AML [1]; JQ-1 treatment (FIG. 9H),reduced the growth of MLL-AF9 AML in dose dependent manner
same,expression of MCT4,[5],suppressed
same,growth,NOMO-1,suppressed
